PMC9551036, “A selective and orally bioavailable VHL-recruiting PROTAC achieves SMARCA2 degradation in vivo” (Nature Communications, 2022)
Values joined by “and” are separate entries in the source; they are usually repeats but may differ in a detail not shown here. Equal entries are not always repeated. Where two headings read alike, the source gives them in different places.

How the values were obtained:
SMARCA2 [1] = target: T1, SMARCA2 (Homo sapiens, UniProt P51531); test: SMARCA2 capillary electrophoresis protein assay in RKO cells; format: cell-based; design: endogenous in cells; host or cells: RKO, NCI-H1568, A549, HCT116, LU99, HCC-364, HCT-15, HCC4006, SK-N-AS; conditions: mean ± SD; for Dmax: RKO
Description: 130,000–200,000 cells were seeded in 24-well plates and incubated until settled down or overnight. Compounds were dissolved in DMSO and added to cells in indicated concentrations using a digital dispenser following an optional media change. […] For SMARCA2/4 half-life determination, 150,000 or 200,000 cells were seeded in 24-well plates. […] For SMARCA2/4 re-synthesis measurements, 200,000 cells were seeded in 24-well plates. […] Medium was removed, cells were washed with PBS and lysed with 80 µl Lysis Buffer (MSD Tris Lysis Buffer (#R60TX-2) + Halt Inhibitor Cocktail (100x) + Benzonase 0.5 µL/ml). Samples were frozen at −80 °C and thawed at room temperature before use. Samples were transferred to a V-bottom plate and insoluble debris was pelleted by centrifugation for 5 min at maximum speed. The supernatant was transferred to a fresh plate. Master Mix and Ladder were prepared according to manufacturer’s instructions for 12–230 kDa Wes Separation Module, 8 × 25 capillary cartridges, Protein Simple #SM-W004 with Anti-Rabbit Detection Module for Wes, Peggy Sue or Sally Sue, Protein Simple #DM-001. 4.8 µl lysate were mixed with 1.2 µl Master Mix to achieve a protein concentration of ~0.5 µg/µl. […] Wes plates were prepared and run according to manufacturer’s instructions. Proteins were quantified with accompanying Compass Software. SMARCA2/4 protein levels were normalised to GAPDH. […] Where applicable, curves were fitted using a 4-parametric logistic model.

PBRM1BD5 = target: T2, PBRM1BD5 (Homo sapiens, UniProt Q86U86); test: TR-FRET ternary complex affinity and cooperativity, PBRM1; format: binding; conditions: TR-FRET competition for PBRM1BD5, without VCB; mean ± SD; read-out: TR-FRET PBRM1BD EC50
T2 construct: GST (TEV site) (N); His6 (TEV site) (N, cleaved yes); made in house; host or cells: PBRM1^BD5: Escherichia coli BL21(DE3)

PBRM1 BD = target: T3, PBRM1 BD (Homo sapiens, UniProt Q86U86); test: TR-FRET binary and ternary (PROTAC + VCB) affinity, PBRM1 bromodomain; format: binding; conditions: individual replicates
T3 construct: GST (TEV site) (N); made in house; host or cells: Escherichia coli BL21(DE3)

SMARCA2 [2] = target: T1, SMARCA2; test: Imaging-based SMARCA2 protein assay in RKO cells; format: cell-based; design: endogenous in cells; host or cells: RKO, NCI-H1568, A549, HCT116, LU99, HCC-364, HCT-15, HCC4006, SK-N-AS; conditions: individual replicates
Description: 1250 cells per well in 60 µl medium were plated in flat bottom, poly-lysin coated 384-well plates (CellCarrier Ultra, Perkin Elmer). The next day, test compounds (10 µl of serial dilutions) and DMSO controls were diluted in DMEM medium such that the final DMSO content was <1% or were added using an ultrasound dispensing system. 4 wells were reserved for a background measurement. […] After aspirating the fixing solution, the cells were washed once with 25 µl PBS. 25 µl of blocking buffer (10% goat serum in PBS) was added and cells were incubated for 30 min, then washed once with PBS. […] Cells were again washed once with PBS. […] The cell layer was then washed once with 25 µl PBS, the wells were filled with 25 µl PBS and the plates were sealed with an adhesive sheet. They were then imaged on the Opera Phoenix (mean intensity in the nucleus). […] EC50 values were computed using a 4-parametric logistic model.

[3] = PROTAC + VCB, read-out: Ternary PBRM1 BD EC50 (PROTAC + VCB)
[4] = binary, PROTAC alone, read-out: PBRM1 EC50
[5] = 18h, read-out: RKO (18h) SMARCA2 DC50
[6] = 4h, read-out: RKO (4h) SMARCA2 DC50

T2 sequence (Q86U86 645-766): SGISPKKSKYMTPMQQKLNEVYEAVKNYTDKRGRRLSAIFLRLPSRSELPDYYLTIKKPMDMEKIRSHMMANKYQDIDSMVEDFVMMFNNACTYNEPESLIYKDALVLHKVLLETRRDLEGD
T1 sequence (P51531 whole entry): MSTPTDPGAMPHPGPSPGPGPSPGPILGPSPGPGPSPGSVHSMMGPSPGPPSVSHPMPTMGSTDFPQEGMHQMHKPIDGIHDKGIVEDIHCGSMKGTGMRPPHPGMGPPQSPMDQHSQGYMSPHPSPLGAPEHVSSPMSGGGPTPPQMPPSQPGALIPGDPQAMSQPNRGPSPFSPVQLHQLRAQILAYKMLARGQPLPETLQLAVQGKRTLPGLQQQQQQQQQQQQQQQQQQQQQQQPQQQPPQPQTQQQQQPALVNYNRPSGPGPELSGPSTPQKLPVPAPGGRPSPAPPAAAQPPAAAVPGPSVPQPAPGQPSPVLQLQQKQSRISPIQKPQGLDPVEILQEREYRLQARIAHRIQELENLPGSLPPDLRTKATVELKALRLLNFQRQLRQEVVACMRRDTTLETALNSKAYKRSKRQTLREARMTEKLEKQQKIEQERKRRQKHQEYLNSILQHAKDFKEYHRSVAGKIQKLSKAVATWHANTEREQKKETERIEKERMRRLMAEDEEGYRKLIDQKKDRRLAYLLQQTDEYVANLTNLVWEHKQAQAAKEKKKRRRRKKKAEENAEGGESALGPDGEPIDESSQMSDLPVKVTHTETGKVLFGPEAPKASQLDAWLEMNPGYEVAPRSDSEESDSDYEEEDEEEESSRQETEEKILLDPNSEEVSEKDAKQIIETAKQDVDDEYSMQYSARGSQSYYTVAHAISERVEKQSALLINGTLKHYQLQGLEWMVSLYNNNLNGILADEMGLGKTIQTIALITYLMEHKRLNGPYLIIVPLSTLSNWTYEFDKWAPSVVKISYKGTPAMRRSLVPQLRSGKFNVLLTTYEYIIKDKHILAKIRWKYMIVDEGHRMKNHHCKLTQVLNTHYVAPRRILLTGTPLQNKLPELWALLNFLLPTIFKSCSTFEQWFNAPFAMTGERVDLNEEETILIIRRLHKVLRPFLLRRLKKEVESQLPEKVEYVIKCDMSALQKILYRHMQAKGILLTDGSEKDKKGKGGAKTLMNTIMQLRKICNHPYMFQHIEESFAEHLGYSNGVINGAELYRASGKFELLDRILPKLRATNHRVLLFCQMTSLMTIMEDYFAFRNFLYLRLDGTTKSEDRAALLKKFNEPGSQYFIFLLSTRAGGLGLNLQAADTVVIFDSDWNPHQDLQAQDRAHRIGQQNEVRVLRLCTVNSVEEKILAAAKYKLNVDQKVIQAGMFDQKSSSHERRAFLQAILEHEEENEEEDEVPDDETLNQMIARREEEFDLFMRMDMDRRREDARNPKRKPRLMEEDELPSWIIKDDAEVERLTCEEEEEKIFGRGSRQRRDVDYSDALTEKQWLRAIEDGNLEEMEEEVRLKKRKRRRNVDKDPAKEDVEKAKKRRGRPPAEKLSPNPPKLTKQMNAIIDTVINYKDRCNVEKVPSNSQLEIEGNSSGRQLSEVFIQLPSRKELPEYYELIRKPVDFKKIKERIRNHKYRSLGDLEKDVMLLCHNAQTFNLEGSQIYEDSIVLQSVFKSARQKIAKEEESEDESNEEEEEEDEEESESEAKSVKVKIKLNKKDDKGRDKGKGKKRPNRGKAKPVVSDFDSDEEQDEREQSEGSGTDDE

## Cc1ncsc1-c1ccc(CNC(=O)[C@@H]2C[C@@H](O)CN2C(=O)[C@@H](NC(=O)C2(F)CC2)C(C)(C)C)c(OCCCCN2CCC(c3ccc4c(c3)n(C3CCCC3)c3nc(=O)c5c(Br)cccc5n43)CC2)c1 [compound 23]
SMARCA2 [1]; RKO (4 h)
  DC50: > 25000 nM
SMARCA2 [1]; RKO (18 h)
  DC50: 39 ± 10 nM
  SMARCA2 Dmax: 37 ± 5%
PBRM1BD5
  EC50: 39 ± 5 nM
PBRM1 BD; [3]
  EC50: 18.3 nM and 22.9 nM and 22.1 nM
PBRM1 BD; [4]
  EC50: 46.2 nM and 37.9 nM and 38.2 nM and 36.1 nM
SMARCA2 [2]; [5]
  DC50: 30 nM and 50 nM and 40 nM

## Cc1ncsc1-c1ccc([C@H](CCCCN2CCC(c3ccc4c(c3)n(C3CCCC3)c3nc(=O)c5c(Br)cccc5n43)CC2)NC(=O)[C@@H]2C[C@@H](O)CN2C(=O)[C@@H](NC(=O)C2(F)CC2)C(C)(C)C)cc1 [compound 25]
SMARCA2 [1]; RKO (4 h)
  DC50: 3 ± 1 nM
  SMARCA2 Dmax: 66 ± 5%
SMARCA2 [1]; RKO (18 h)
  DC50: 3 ± 1 nM
  SMARCA2 Dmax: 80 ± 6%
PBRM1BD5
  EC50: 36 ± 12 nM
PBRM1 BD; [3]
  EC50: 2.29 nM and 2.88 nM and 3.31 nM and 5.31 nM and 3.22 nM
PBRM1 BD; [4]
  EC50: 33 nM and 36.4 nM and 33.2 nM and 57.3 nM and 26.6 nM
SMARCA2 [2]; [6]
  DC50: 4.26 nM and 1.82 nM and 3.89 nM and 3.46 nM
SMARCA2 [2]; [5]
  DC50: 2 nM and 2.63 nM and 3.33 nM

## Cc1ncsc1-c1ccc([C@H](COCCN2CCC(c3ccc4c(c3)n(C3CCCC3)c3nc(=O)c5c(Br)cccc5n43)CC2)NC(=O)[C@@H]2C[C@@H](O)CN2C(=O)[C@@H](NC(=O)C2(N(C)C)CC2)C(C)(C)C)cc1 [compound 26]
SMARCA2 [1]; RKO (4 h)
  DC50: 12 ± 7 nM
  Dmax: 77 ± 3%
SMARCA2 [1]; RKO (18 h)
  DC50: 6 ± 2 nM
  Dmax: 82 ± 4%
PBRM1BD5
  EC50: 22 ± 5 nM
PBRM1 BD; [3]
  EC50: 4.07 nM and 5.33 nM and 4.96 nM and 5.58 nM and 10.7 nM and 6.01 nM and 6.73 nM and 6.09 nM
PBRM1 BD; [4]
  EC50: 22.2 nM and 18.2 nM and 23.4 nM and 24.5 nM and 15.7 nM and 23.5 nM and 21.5 nM and 14.9 nM and 30.3 nM and 26.7 nM
SMARCA2 [2]; [6]
  DC50: 13.4 nM and 7.13 nM and 22 nM and 9.24 nM
SMARCA2 [2]; [5]
  DC50: 3.5 nM and 6.73 nM and 7.09 nM

## Cc1ncsc1-c1ccc([C@H](COCCCN2CCC(c3ccc4c(c3)n(C3CCCC3)c3nc(=O)c5c(Br)cccc5n43)CC2)NC(=O)[C@@H]2C[C@@H](O)CN2C(=O)[C@@H](NC(=O)C2(F)CC2)C(C)(C)C)cc1 [compound 27]
SMARCA2 [1]; RKO (4 h)
  DC50: 5 ± 2 nM
  SMARCA2 Dmax: 70 ± 7%
SMARCA2 [1]; RKO (18 h)
  DC50: 2 ± 1 nM
  SMARCA2 Dmax: 85 ± 3%
PBRM1BD5
  EC50: 33 ± 7 nM
PBRM1 BD; [3]
  EC50: 2.18 nM and 2.66 nM and 2.87 nM and 2.65 nM and 2.69 nM and 3.64 nM and 3.28 nM
PBRM1 BD; [4]
  EC50: 32.7 nM and 35.1 nM and 34.6 nM and 30.3 nM and 34.2 nM and 22.8 nM and 45.7 nM
SMARCA2 [2]; [6]
  DC50: 5.2 nM and 2.76 nM and 5.65 nM and 7.65 nM
SMARCA2 [2]; [5]
  DC50: 1.7 nM and 2.99 nM and 2.34 nM

## Cc1ncsc1-c1ccc([C@H](COC(C)(C)CN2CCC(c3ccc4c(c3)n(C3CCCC3)c3nc(=O)c5c(Br)cccc5n43)CC2)NC(=O)[C@@H]2C[C@@H](O)CN2C(=O)[C@@H](NC(=O)C2(F)CC2)C(C)(C)C)cc1 [compound 28]
SMARCA2 [1]; RKO (4 h)
  DC50: 17 ± 8 nM
  SMARCA2 Dmax: 69 ± 4%
SMARCA2 [1]; RKO (18 h)
  DC50: 5 ± 2 nM
  SMARCA2 Dmax: 76 ± 11%
PBRM1BD5
  EC50: 24 ± 11 nM
PBRM1 BD; [3]
  EC50: 5.74 nM and 5.13 nM and 5.34 nM and 1.07 nM
PBRM1 BD; [4]
  EC50: 37.2 nM and 28.8 nM and 29.6 nM and 10.8 nM
SMARCA2 [2]; [6]
  DC50: 14.7 nM and 15 nM and 30.1 nM and 11.8 nM
SMARCA2 [2]; [5]
  DC50: 3.23 nM and 5.17 nM and 7.73 nM and 5.43 nM

## Cc1ncsc1-c1ccc([C@H](CC[C@@H](C)CCN2CCC(c3ccc4c(c3)n(C3CCCC3)c3nc(=O)c5c(Br)cccc5n43)CC2)NC(=O)[C@@H]2C[C@@H](O)CN2C(=O)[C@@H](NC(=O)C2(F)CC2)C(C)(C)C)cc1 [compound 29]
SMARCA2 [1]; RKO (4 h)
  DC50: 2 ± 1 nM
  SMARCA2 Dmax: 74 ± 2%
SMARCA2 [1]; RKO (18 h)
  DC50: 1 ± 0.1 nM
  SMARCA2 Dmax: 84 ± 4%
PBRM1BD5
  EC50: 85 ± 25 nM
PBRM1 BD; [3]
  EC50: 2.66 nM and 3.59 nM and 4.13 nM
PBRM1 BD; [4]
  EC50: 66.7 nM and 78.8 nM and 115 nM
SMARCA2 [2]; [6]
  DC50: 1.56 nM and 2.15 nM and 1.32 nM and 3.46 nM
SMARCA2 [2]; [5]
  DC50: 0.877 nM and 0.998 nM and 0.942 nM and 0.753 nM

## Cc1ncsc1-c1ccc([C@H](CCC(C)(C)CCN2CCC(c3ccc4c(c3)n(C3CCCC3)c3nc(=O)c5c(Br)cccc5n43)CC2)NC(=O)[C@@H]2C[C@@H](O)CN2C(=O)[C@@H](NC(=O)C2(F)CC2)C(C)(C)C)cc1 [compound 30]
SMARCA2 [1]; RKO (4 h)
  DC50: 8 ± 2 nM
  SMARCA2 Dmax: 74 ± 5%
SMARCA2 [1]; RKO (18 h)
  DC50: 3 ± 1 nM
  SMARCA2 Dmax: 82 ± 5%
PBRM1BD5
  EC50: 131 ± 49 nM
PBRM1 BD; [3]
  EC50: 4.23 nM and 6.19 nM and 8.06 nM
PBRM1 BD; [4]
  EC50: 111 nM and 105 nM and 192 nM
SMARCA2 [2]; [6]
  DC50: 6.74 nM and 9.27 nM
SMARCA2 [2]; [5]
  DC50: 2.02 nM and 3.96 nM and 3.27 nM and 3.57 nM
